In brackets after ≈: the same amount, converted by molar mass.
How the values were obtained:
Anas platyrhynchos = details: oral, mortality
Apis mellifera = details: acute; duration: 48 hours; oral; unspecified; mortality
Canidae = details: oral, Dog Other, organ weight
Colinus virginianus = details: acute, oral, mortality
Coturnix japonica = details: reproduction developmental
Daphnia magna = details: chronic/long-term; duration: 21 days; reproduction
Oncorhynchus mykiss = details: acute; duration: 96 hours; mortality
Pimephales promelas = details: chronic/long-term; duration: 35 days; growth
Typhlodromus pyri = details: acute; duration: 7 days; mortality

For `Clc1ccc(C2(Cn3cncn3)CC(Br)CO2)c(Cl)c1` (stereo not drawn) [Bromuconazole], the LD50 (Anas platyrhynchos; acute, unspecified) was greater than 2150 mg/kg-day, the LC50 (Anas platyrhynchos; short-term, feed) was greater than 684 mg/kg-day and the LD50 (Apis mellifera) was greater than 100 µg/piece. The NOAEL (Canidae; chronic, duration: 1 years) was 2.5 mg/kg-day, the NOAEL (Canidae; subchronic, duration: 90 days) was 2.5 mg/kg-day and the LC50 (Colinus virginianus; diet) was greater than 778 mg/kg-day. For the same compound, the LD50 (Colinus virginianus) was greater than 2150 mg/kg-day, the NOEC (Coturnix japonica) was 26.5 mg/kg-day and the NOEC (Daphnia magna) was 0.02 mg/L. The LC50 (Oncorhynchus mykiss) was 1.7 µg/mL (≈ 4.51 µM), the NOEC (Pimephales promelas) was 0.065 mg/L and the LD50 (Rattus norvegicus; acute, F, mortality) was 328 mg/kg-day. It also gave an NOAEL (Rattus norvegicus; chronic, duration: 2 years, oral, diet, histopathology: nonneoplastic) of 0.88 mg/kg-day, an NOAEL (Rattus norvegicus; developmental, development) of 10 mg/kg-day and an NOEC (Rattus norvegicus; reproduction developmental, reproduction) of 1.3 mg/kg-day. The LC50 (Tagia sp.; acute, duration: 14 days, mortality) was greater than 1000 mg/kg, the NOEC (Tagia sp.; chronic/long-term, duration: 56 days) was 37.2 mg/kg and the LEL (Typhlodromus pyri) was 260 g/ha.

Reference: EPA's ToxValDB 9.5 (doi:10.2903/j.efsa.2008.136r)
